Converted amounts (≈) assume the structure as drawn.
Key:
Type in all cases: functional
Aspergillus ochraceus = test: Inhibition of spore germination of Aspergillus ochraceus DSM63304 after 24 hrs at 27 degC by serial dilution method
Staphylococcus aureus = test: Antibacterial activity against Staphylococcus aureus ATCC 13709 after 24 hrs at 37 degC by serial dilution method; conditions: ATCC 13709, 24 h
Candida albicans = test: Antifungal activity against Candida albicans ATCC 10231 after 24 hrs at 37 degC by serial dilution method; conditions: ATCC 10231, 24 h
Bacillus cereus = test: Antibacterial activity against Bacillus cereus DSM318 after 24 hrs at 37 degC by serial dilution method; conditions: DSM318, 24 h
Aspergillus niger = test: Inhibition of spore germination of Aspergillus niger DSM737 after 24 hrs at 27 degC by serial dilution method; conditions: DSM737, 24 h
Rhodotorula glutinis = test: Antifungal activity against Rhodotorula glutinis DSM70398 after 24 hrs at 27 degC by serial dilution method
Candida tropicalis = test: Antifungal activity against Candida tropicalis DSM1346 after 24 hrs at 37 degC by serial dilution method
[1] = system: Agrobacterium tumefaciens; test: Antibacterial activity against Agrobacterium tumefaciens ATCC 23308 after 24 hrs at 37 degC by serial dilution method; conditions: ATCC 23308, 24 h

- MIC (Aspergillus ochraceus): 1 µg/mL (≈ 6.24 µM)
- MIC (Staphylococcus aureus): > 100 µg/mL
- MIC (Candida albicans): 50 µg/mL (≈ 312 µM)
- MIC (Bacillus cereus): > 100 µg/mL
- MIC (Aspergillus niger): 1 µg/mL (≈ 6.24 µM)
- MIC (Rhodotorula glutinis): 10 µg/mL (≈ 62.4 µM)
- MIC (Candida tropicalis): 50 µg/mL (≈ 312 µM)
- MIC [1]: > 100 µg/mL
SMILES: CC#CC#CC#C[C@@H]1O[C@@H]1CO (relative stereo)

Reference: ChEMBL document CHEMBL1149050, “An antifungal polyacetylenic compound from the culture filtrate of the fungus Trametes pubescens” (1994)
